Measured values as given in US6818203B2, “Use of perfluoroalkyl-containing metal complexes as contrast media in MR-imaging for visualization of plaque, tumors and necroses” (Schering Aktiengesellschaft, priority 2000, dated 2004).

Tested on: iliac and inguinal lymph nodes
Assay: lymph node visualization (MRT) after intravenous administration in guinea pigs with stimulated lymph nodes
Type: in vivo
Conditions: 200 μmol of Gd/kg i.v.
Method: By way of example, the pictures in FIG. 14 show MR images of iliac and inguinal lymph nodes precontrast and up to 24 hours after intravenous administration of 200 μmol of Gd/kg of body weight of metal complex XIV in guinea pigs with stimulated lymph nodes (Freund adjuvant). […] The enhancement was 127% at the time of 60 minutes p.i.

`CC(C(=O)NCC(=O)NCC(=O)N1CCN(C(=O)CNC(=O)CNC(=O)C(C)N2CCN(CC(=O)[O-])CCN(CC(=O)[O-])CCN(CC(=O)[O-])CC2)CCN(C(=O)COCCC(F)(F)C(F)(F)C(F)(F)C(F)(F)C(F)(F)C(F)(F)C(F)(F)C(F)(F)F)CCN(C(=O)CNC(=O)CNC(=O)C(C)N2CCN(CC(=O)[O-])CCN(CC(=O)[O-])CCN(CC(=O)[O-])CC2)CC1)N1CCN(CC(=O)[O-])CCN(CC(=O)[O-])CCN(CC(=O)[O-])CC1.[Gd+3].[Gd+3].[Gd+3]` (centres unmarked) [metal complex XIV, 1,4,7-Tris{1,4,7-tris(N-(carboxylatomethyl)-10-[N-1-methyl-3,6-diaza-2,5,8-trioxooctane-1,8-diyl]-1,4,7,10-tetraazacyclododecane, Gdcomplex}-10-N-2H,2H,4H,4H,5H,5H-3-oxa-perfluoro-tridecanoyl]-1,4,7,10-tetraazacyclo-dodecane, Gd complex] was tested, and the “enhancement in lymph node tissue” value (60 minutes p.i.) was 127% and the “signal in healthy lymph node tissue (T1-weighted gradient-echo images)” value (very shortly after injection) was “strong signal rise”.
